# Values quoted from earlier work as cited in US20070148249A1, “Method of preparation of oral solid dosage form with instant release of acting” (priority 2003, published 2007).
# Read-outs that look alike come from different tables or passages of the source.
smiles,measurement,setting,value
"CC(C)(C)NC(=O)[C@H]1CC[C@H]2[C@@H]3CC[C@H]4NC(=O)C=C[C@]4(C)[C@H]3CC[C@]12C [Finasteride, (5α,17β)-N-(1,1-dimethylethyl)-3-oxo-4-azaandrost-1-en-17-carboxamide]",Solubility,in chloroform and lower alcohols,well soluble
same,Solubility,in water,almost insoluble
